Values quoted from earlier work, collected in US10772323B2, “Benzoic acid herbicide composition” (NUFARM AUSTRALIA LIMITED, priority 2015, dated 2020).

Conditions: acid form; 25° C.

- water solubility: about 4500 mg/L
Compound: COc1c(Cl)ccc(Cl)c1C(=O)O [dicamba, 3,6-dichloro-2-methoxybenzoic acid]
